Data as given in the supplement of paper PMC10307832.

Columns and labels:
Experiment in all cases: relative viability (nuclei count vs DMSO), 5 days (fraction); higher = more cells survive
[1] = compound: CN(C)CC1=CC(=CC=C1)N=C(C2=CC=CC=C2)C3=C(NC4=C3C=CC(=C4)C(=O)N(C)C)O + O=C(CCCCCCC(=O)Nc1ccccc1)NO [Vorinostat] (partner 1 µM)
Outline: (§1)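 A single step with final 0.05% Triton X-100, 1% formaldehyde and 1 ug/ml Hoechst fixed the cells and stained nuclei 5 days after treatment. Lung cancer cell lines in 1536-well plates had been treated by pin tool the day after seeding with one drug alone or a fixed anchor-drug dose plus five library-drug doses (not always all listed) in √10 steps, and nuclei were counted on 4× images. Relative viability is the ratio of nuclei in treated wells to nuclei in vehicle wells, taken as the median of duplicate plates.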

[2] = compound: CN(C)CC1=CC(=CC=C1)N=C(C2=CC=CC=C2)C3=C(NC4=C3C=CC(=C4)C(=O)N(C)C)O + C[C@@H](Oc1cc(-c2cnn(C3CCNCC3)c2)cnc1N)c1c(Cl)ccc(F)c1Cl [Crizotinib] (partner 1 µM)
Outline: as §1

[3] = compound: CN(C)CC1=CC(=CC=C1)N=C(C2=CC=CC=C2)C3=C(NC4=C3C=CC(=C4)C(=O)N(C)C)O + Cc1nc(Nc2ncc(C(=O)Nc3c(C)cccc3Cl)s2)cc(N2CCN(CCO)CC2)n1 [Dasatinib] (partner 0.075 µM)
Outline: as §1

[4] = compound: CN(C)CC1=CC(=CC=C1)N=C(C2=CC=CC=C2)C3=C(NC4=C3C=CC(=C4)C(=O)N(C)C)O + CS(=O)(=O)N1CCN(Cc2cc3nc(-c4cccc5[nH]ncc45)nc(N4CCOCC4)c3s2)CC1 [Pictilisib] (partner 1 µM)
Outline: as §1

NCI-H3122
relative viability ([1]; first compound 0.08 µM): 0.966
relative viability ([1]; first compound 0.253 µM): 0.947
relative viability ([1]; first compound 0.8 µM): 1.17
relative viability ([1]; first compound 2.53 µM): 0.905
relative viability ([1]; first compound 8 µM): 0.898
relative viability ([2]; first compound 0.08 µM): 0.281
relative viability ([2]; first compound 0.253 µM): 0.286
relative viability ([2]; first compound 0.8 µM): 0.246
relative viability ([2]; first compound 2.53 µM): 0.318
relative viability ([2]; first compound 8 µM): 0.29
relative viability ([3]; first compound 0.08 µM): 0.686
relative viability ([3]; first compound 0.253 µM): 0.867
relative viability ([3]; first compound 0.8 µM): 0.846
relative viability ([3]; first compound 2.53 µM): 0.844
relative viability ([3]; first compound 8 µM): 0.951
relative viability ([4]; first compound 0.08 µM): 0.664
relative viability ([4]; first compound 0.253 µM): 0.55
relative viability ([4]; first compound 0.8 µM): 0.643
relative viability ([4]; first compound 2.53 µM): 0.698
relative viability ([4]; first compound 8 µM): 0.746

PC-3 [JPC-3]
relative viability ([1]; first compound 0.08 µM): 0.853
relative viability ([1]; first compound 0.253 µM): 0.834
relative viability ([1]; first compound 0.8 µM): 0.682
relative viability ([1]; first compound 2.53 µM): 0.883
relative viability ([1]; first compound 8 µM): 1.03
relative viability ([2]; first compound 0.08 µM): 0.968
relative viability ([2]; first compound 0.253 µM): 0.983
relative viability ([2]; first compound 0.8 µM): 0.824
relative viability ([2]; first compound 2.53 µM): 0.985
relative viability ([2]; first compound 8 µM): 1.07
relative viability ([3]; first compound 0.08 µM): 1.01
relative viability ([3]; first compound 0.253 µM): 1.03
relative viability ([3]; first compound 0.8 µM): 0.911
relative viability ([3]; first compound 2.53 µM): 0.914
relative viability ([3]; first compound 8 µM): 0.992
relative viability ([4]; first compound 0.08 µM): 0.613
relative viability ([4]; first compound 0.253 µM): 0.88
relative viability ([4]; first compound 0.8 µM): 0.655
relative viability ([4]; first compound 2.53 µM): 0.76
relative viability ([4]; first compound 8 µM): 0.829

PC-14
relative viability ([1]; first compound 0.08 µM): 0.576
relative viability ([1]; first compound 0.253 µM): 0.675
relative viability ([1]; first compound 0.8 µM): 0.833
relative viability ([1]; first compound 2.53 µM): 0.687
relative viability ([1]; first compound 8 µM): 0.592
relative viability ([2]; first compound 0.08 µM): 0.948
relative viability ([2]; first compound 0.253 µM): 0.885
relative viability ([2]; first compound 0.8 µM): 0.842
relative viability ([2]; first compound 2.53 µM): 0.786
relative viability ([2]; first compound 8 µM): 1.01
relative viability ([3]; first compound 0.08 µM): 0.289
relative viability ([3]; first compound 0.253 µM): 0.273
relative viability ([3]; first compound 0.8 µM): 0.324
relative viability ([3]; first compound 2.53 µM): 0.247
relative viability ([3]; first compound 8 µM): 0.197
relative viability ([4]; first compound 0.08 µM): 0.698
relative viability ([4]; first compound 0.253 µM): 0.608
relative viability ([4]; first compound 0.8 µM): 0.63
relative viability ([4]; first compound 2.53 µM): 0.591
relative viability ([4]; first compound 8 µM): 0.662

RERF-LC-KJ
relative viability ([1]; first compound 0.08 µM): 0.744
relative viability ([1]; first compound 0.253 µM): 0.703
relative viability ([1]; first compound 0.8 µM): 0.605
relative viability ([1]; first compound 2.53 µM): 0.64
relative viability ([1]; first compound 8 µM): 0.681
relative viability ([2]; first compound 0.08 µM): 0.855
relative viability ([2]; first compound 0.253 µM): 0.771
relative viability ([2]; first compound 0.8 µM): 0.707
relative viability ([2]; first compound 2.53 µM): 0.887
relative viability ([2]; first compound 8 µM): 0.754
relative viability ([3]; first compound 0.08 µM): 0.931
relative viability ([3]; first compound 0.253 µM): 0.831
relative viability ([3]; first compound 0.8 µM): 0.876
relative viability ([3]; first compound 2.53 µM): 0.749
relative viability ([3]; first compound 8 µM): 0.793
relative viability ([4]; first compound 0.08 µM): 0.518
relative viability ([4]; first compound 0.253 µM): 0.595
relative viability ([4]; first compound 0.8 µM): 0.57
relative viability ([4]; first compound 2.53 µM): 0.625
relative viability ([4]; first compound 8 µM): 0.515

SK-LU-1
relative viability ([1]; first compound 0.08 µM): 0.796
relative viability ([1]; first compound 0.253 µM): 0.861
relative viability ([1]; first compound 0.8 µM): 0.735
relative viability ([1]; first compound 2.53 µM): 0.847
relative viability ([1]; first compound 8 µM): 0.581
relative viability ([2]; first compound 0.08 µM): 1
relative viability ([2]; first compound 0.253 µM): 1.08
relative viability ([2]; first compound 0.8 µM): 0.982
relative viability ([2]; first compound 2.53 µM): 0.825
relative viability ([2]; first compound 8 µM): 0.613
relative viability ([3]; first compound 0.08 µM): 0.185
relative viability ([3]; first compound 0.253 µM): 0.199
relative viability ([3]; first compound 0.8 µM): 0.188
relative viability ([3]; first compound 2.53 µM): 0.196
relative viability ([3]; first compound 8 µM): 0.163
relative viability ([4]; first compound 0.08 µM): 0.575
relative viability ([4]; first compound 0.253 µM): 0.548
relative viability ([4]; first compound 0.8 µM): 0.566
relative viability ([4]; first compound 2.53 µM): 0.538
relative viability ([4]; first compound 8 µM): 0.477

SK-MES-1
relative viability ([1]; first compound 0.08 µM): 1.13
relative viability ([1]; first compound 0.253 µM): 1.08
relative viability ([1]; first compound 0.8 µM): 1.08
relative viability ([1]; first compound 2.53 µM): 1.01
relative viability ([1]; first compound 8 µM): 1.03
relative viability ([2]; first compound 0.08 µM): 0.946
relative viability ([2]; first compound 0.253 µM): 1.03
relative viability ([2]; first compound 0.8 µM): 0.956
relative viability ([2]; first compound 2.53 µM): 0.883
relative viability ([2]; first compound 8 µM): 0.939
relative viability ([3]; first compound 0.08 µM): 0.438
relative viability ([3]; first compound 0.253 µM): 0.349
relative viability ([3]; first compound 0.8 µM): 0.25
relative viability ([3]; first compound 2.53 µM): 0.388
relative viability ([3]; first compound 8 µM): 0.311
relative viability ([4]; first compound 0.08 µM): 0.301
relative viability ([4]; first compound 0.253 µM): 0.316
relative viability ([4]; first compound 0.8 µM): 0.368
relative viability ([4]; first compound 2.53 µM): 0.332
relative viability ([4]; first compound 8 µM): 0.249

SW 1573
relative viability ([1]; first compound 0.08 µM): 0.616
relative viability ([1]; first compound 0.253 µM): 1.08
relative viability ([1]; first compound 0.8 µM): 0.958
relative viability ([1]; first compound 2.53 µM): 0.744
relative viability ([1]; first compound 8 µM): 0.55
relative viability ([2]; first compound 0.08 µM): 0.842
relative viability ([2]; first compound 0.253 µM): 0.854
relative viability ([2]; first compound 0.8 µM): 0.672
relative viability ([2]; first compound 2.53 µM): 0.866
relative viability ([2]; first compound 8 µM): 0.794
relative viability ([3]; first compound 0.08 µM): 0.538
relative viability ([3]; first compound 0.253 µM): 0.794
relative viability ([3]; first compound 0.8 µM): 0.589
relative viability ([3]; first compound 2.53 µM): 0.436
relative viability ([3]; first compound 8 µM): 0.383
relative viability ([4]; first compound 0.08 µM): 0.474
relative viability ([4]; first compound 0.253 µM): 0.512
relative viability ([4]; first compound 0.8 µM): 0.523
relative viability ([4]; first compound 2.53 µM): 0.385
relative viability ([4]; first compound 8 µM): 0.456

UMC-11
relative viability ([1]; first compound 0.08 µM): 0.318
relative viability ([1]; first compound 0.253 µM): 0.399
relative viability ([1]; first compound 0.8 µM): 0.41
relative viability ([1]; first compound 2.53 µM): 0.364
relative viability ([1]; first compound 8 µM): 0.34
relative viability ([2]; first compound 0.08 µM): 0.62
relative viability ([2]; first compound 0.253 µM): 0.711
relative viability ([2]; first compound 0.8 µM): 0.662
relative viability ([2]; first compound 2.53 µM): 0.468
relative viability ([2]; first compound 8 µM): 0.588
relative viability ([3]; first compound 0.08 µM): 0.507
relative viability ([3]; first compound 0.253 µM): 0.414
relative viability ([3]; first compound 0.8 µM): 0.45
relative viability ([3]; first compound 2.53 µM): 0.445
relative viability ([3]; first compound 8 µM): 0.407
relative viability ([4]; first compound 0.08 µM): 0.971
relative viability ([4]; first compound 0.253 µM): 0.82
relative viability ([4]; first compound 0.8 µM): 0.771
relative viability ([4]; first compound 2.53 µM): 0.776
relative viability ([4]; first compound 8 µM): 0.638
